Paper PMC11231114 (EJNMMI Research, 2024)
pIC50: −log10 of the molar value.

Columns and labels:
dog hepatocytes = test: Metabolite profiling in cryopreserved hepatocytes (in vitro MetID); type: in vitro ADME; details: for Relative abundance of metabolites calculated as % of parent (SYN2), Dog: 1 µM SYN2, 37 °C
Description: (§1) The metabolite profiling and characterization experiment of SYN2 molecule (in vitro MetID, Admescope) was conducted to evaluate potential metabolic pathways. In order to characterize the metabolites of SYN2, the compound was incubated in cryopreserved rat, dog and human hepatocytes. Prior to the incubation, the hepatocytes were thawed, suspended in Williams medium E and then centrifuged to receive a target density of about 1 million cells/ml. A SYN2 solution of 1 µM was then added to the hepatocyte suspension and incubated at 37 °C for 0, 30 and 60 min. The incubations were stopped by the addition of acetonitrile, then frozen and centrifuged to remove precipitated proteins. Supernatants were then analysed with ultra-performance liquid chromatography (UPLC) and high-resolution mass spectrometry (HRMS).
(§2) Compound Discoverer (CD) was used for data mining with manual confirmation for metabolite profiling and characterization.

rat hepatocytes = test: as above; type: in vitro ADME; details: for Relative abundance of metabolites calculated as % of parent (SYN2), Rat: 1 µM SYN2, 37 °C
Description: as §1, §2

human hepatocytes = test: as above; type: in vitro ADME; details: for Relative abundance of metabolites calculated as % of parent (SYN2), Human: 1 µM SYN2, 37 °C
Description: as §1, §2

[1] = system: GPCRs, drug transporters, ion channels, nuclear receptors and enzymes; test: Radioligand binding assays, remaining 65 assays of the panel of 68; details: 1 µM
Description: (§3) The possibility of pharmacological interactions of SYN2 was assessed in vitro in radioligand binding assays on key pharmacological target classes including GPCRs, drug transporters, ion channels, nuclear receptors and enzymes (LeadProfilingScreen SafetyScreen, PP68, Panel of 68 receptors, Eurofins Panlabs, Inc.). There was only one SYN2 concentration of 1 µM used in the study.
(§4) IC50 values from pharmacodynamics assessment were determined by a non-linear, least squares regression analysis using MathIQ™ (ID Business Solutions Ltd., UK). Where inhibition constants (Ki) are presented, the Ki values were calculated using the equation of Cheng and Prusoff using the observed IC50 of the tested compound, the concentration of radioligand employed in the assay, and the historical values for the KD of the ligand (obtained experimentally at Eurofins Panlabs, Inc.). Where presented, the Hill coefficient (nH), defining the slope of the competitive binding curve, was calculated using MathIQ™.

muscarinic M2 = target: T1, muscarinic M2 (Homo sapiens, UniProt P08172); test: Functional assay at several concentrations; type: biochemical; details: antagonistic effect
T1 sequence (P08172 1-466): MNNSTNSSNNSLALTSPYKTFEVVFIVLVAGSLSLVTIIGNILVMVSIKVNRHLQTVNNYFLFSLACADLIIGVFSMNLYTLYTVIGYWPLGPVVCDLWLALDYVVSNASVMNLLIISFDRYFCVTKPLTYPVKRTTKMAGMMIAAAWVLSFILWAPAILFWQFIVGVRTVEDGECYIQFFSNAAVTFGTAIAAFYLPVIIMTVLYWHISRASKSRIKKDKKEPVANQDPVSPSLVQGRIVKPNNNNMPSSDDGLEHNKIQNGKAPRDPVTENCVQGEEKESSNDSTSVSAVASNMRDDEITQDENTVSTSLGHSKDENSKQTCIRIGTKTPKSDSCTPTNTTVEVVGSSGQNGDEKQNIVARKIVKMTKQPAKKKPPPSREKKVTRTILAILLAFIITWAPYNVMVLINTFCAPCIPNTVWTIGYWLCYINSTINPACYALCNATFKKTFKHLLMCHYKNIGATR
Description: (§5) IC50 values from pharmacodynamics assessment were determined by a non-linear, least squares regression analysis using MathIQ™ (ID Business Solutions Ltd., UK). […] Where presented, the Hill coefficient (nH), defining the slope of the competitive binding curve, was calculated using MathIQ™.

hERG = hERG (Homo sapiens, UniProt Q12809); test: Functional assay at several concentrations; type: biochemical; details: antagonistic effect
Description: as §5

Wistar rats = test: Extended single dose toxicity study, i.v. 2 mg/kg b.w.
Description: Throughout the experiment, the animals’ behaviour was observed and their weight recorded.
The normality distribution was tested with Shapiro-Wilk test. For homogeneity of variance Brown-Forsythe test has been used. For normal distribution and homogeneous variances results, Student’s t-test was used. In the absence of normal distribution, Mann-Whitney test was used. In the case of non-homogenous variance, Cochrane-Cox test was used.

[2] = target: T2, muscarinic acetylcholine M1 receptor (Homo sapiens, UniProt P11229); test: Radioligand binding assay (LeadProfilingScreen SafetyScreen panel); details: 1 µM
T2 construct: purchased Eurofins Panlabs, Inc. PP68
T2 sequence (P11229 1-460): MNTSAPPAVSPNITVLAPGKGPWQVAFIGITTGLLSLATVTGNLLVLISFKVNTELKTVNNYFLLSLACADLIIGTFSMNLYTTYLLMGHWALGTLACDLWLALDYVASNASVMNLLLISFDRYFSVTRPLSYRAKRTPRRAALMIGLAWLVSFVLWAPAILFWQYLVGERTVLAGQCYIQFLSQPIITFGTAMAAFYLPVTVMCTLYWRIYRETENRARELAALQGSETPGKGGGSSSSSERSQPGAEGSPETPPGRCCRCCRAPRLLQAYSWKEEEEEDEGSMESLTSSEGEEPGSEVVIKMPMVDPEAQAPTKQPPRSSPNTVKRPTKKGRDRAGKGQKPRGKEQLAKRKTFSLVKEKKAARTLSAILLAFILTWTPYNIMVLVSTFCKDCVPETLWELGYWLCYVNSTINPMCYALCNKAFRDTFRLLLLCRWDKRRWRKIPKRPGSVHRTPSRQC
Description: as §3, §4

potassium channel hERG = target: T3, potassium channel hERG (Homo sapiens, UniProt Q12809); test: as above; details: 1 µM
T3 construct: purchased Eurofins Panlabs, Inc. PP68
Description: as §3, §4

[3] = target: T4, muscarinic M2 acetylcholine receptor (Homo sapiens, UniProt P08172); test: as above; details: 1 µM
T4 construct: purchased Eurofins Panlabs, Inc. PP68
T4 sequence (P08172 1-466): T1 sequence (P08172 1-466)
Description: as §3, §4

[4] = Plasma pharmacokinetics of non-radioactive SYN2, single i.v. 2 mg/kg, LC-MS/MS; type: in vivo, Wistar rats
Description: The pharmacokinetic study was also conducted using non-radioactive reference standard of [^18F]SYN2 after a single i.v. administration at a dose of 2 mg/kg in rats. Blood samples of about 0.5 ml were collected in K3-EDTA tubes at pre-dose time and 4 min, 15 min, 30 min, 60 min, 4 h, and 24 h after injection (three rats were used at each time point, each rat was bled twice). Blood samples were then centrifuged at approx. 3270 g at 5 ± 3 °C for 10 min to extract plasma, divided in two aliquots and analysed (54 plasma samples in total). The concentrations of SYN2 were determined according to a LC-MS/MS validated method according to the Guidance for Industry (FDA) and Guidance on Validation of Bioanalytical Methods (EMA).

[5] = Expected human Cmax after body surface area correction; details: read-out: expected Cmax, proposed maximum limit dose of 100 µg (2 µg/kg for a 50-kg patient)
[6] = clinical examinations, 2 mg/kg b.w. i.v., treated vs control
[7] = clinical-chemical examinations, 2 mg/kg b.w. i.v., treated vs control
[8] = post mortem examination, 2 mg/kg b.w. i.v., treated vs control

T3 sequence (Q12809 whole entry): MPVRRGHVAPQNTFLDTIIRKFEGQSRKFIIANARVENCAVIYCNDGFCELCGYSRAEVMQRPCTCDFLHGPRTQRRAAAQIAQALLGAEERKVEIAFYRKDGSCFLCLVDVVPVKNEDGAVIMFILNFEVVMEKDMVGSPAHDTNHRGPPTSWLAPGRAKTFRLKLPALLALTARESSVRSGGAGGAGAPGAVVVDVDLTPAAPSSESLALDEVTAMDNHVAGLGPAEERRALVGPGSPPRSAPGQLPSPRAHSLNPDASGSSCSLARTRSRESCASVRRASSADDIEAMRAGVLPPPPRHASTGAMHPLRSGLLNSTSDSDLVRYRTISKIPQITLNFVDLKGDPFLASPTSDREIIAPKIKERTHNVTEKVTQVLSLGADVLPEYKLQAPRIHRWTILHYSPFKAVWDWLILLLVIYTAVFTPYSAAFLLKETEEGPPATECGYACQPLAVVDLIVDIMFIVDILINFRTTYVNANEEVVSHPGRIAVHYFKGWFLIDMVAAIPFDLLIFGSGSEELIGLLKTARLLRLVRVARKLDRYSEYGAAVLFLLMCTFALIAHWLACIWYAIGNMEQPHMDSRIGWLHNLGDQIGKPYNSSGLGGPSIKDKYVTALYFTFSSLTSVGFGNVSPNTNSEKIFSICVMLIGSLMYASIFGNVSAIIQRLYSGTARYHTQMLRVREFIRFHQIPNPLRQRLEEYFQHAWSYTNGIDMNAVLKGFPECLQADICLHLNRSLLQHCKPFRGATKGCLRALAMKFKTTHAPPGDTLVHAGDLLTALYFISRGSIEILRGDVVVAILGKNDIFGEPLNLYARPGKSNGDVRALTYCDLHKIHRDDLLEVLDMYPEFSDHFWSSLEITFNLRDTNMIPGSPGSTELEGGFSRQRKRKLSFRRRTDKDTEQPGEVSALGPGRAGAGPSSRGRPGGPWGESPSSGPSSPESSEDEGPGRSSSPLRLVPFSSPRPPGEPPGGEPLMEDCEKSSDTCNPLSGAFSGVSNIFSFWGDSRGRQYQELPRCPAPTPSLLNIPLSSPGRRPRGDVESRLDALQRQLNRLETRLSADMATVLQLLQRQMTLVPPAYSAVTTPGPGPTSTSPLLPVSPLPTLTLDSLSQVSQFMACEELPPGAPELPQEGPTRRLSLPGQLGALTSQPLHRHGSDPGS
hERG, sequence (Q12809 whole entry): as above

**Q.** Which results are given for `CN(C)c1ccc2cc3ccc(N(C)C)cc3[n+](CCF)c2c1` [SYN2]?
**A.** Relative abundance of metabolites calculated as % of parent (SYN2), Dog (dog hepatocytes; 30 min): 100 % of parent; Relative abundance of metabolites calculated as % of parent (SYN2), Dog (dog hepatocytes; 60 min): 100 % of parent; unchanged parent remaining (dog hepatocytes; after 60 min, dog hepatocytes): 5%; Relative abundance of metabolites calculated as % of parent (SYN2), Rat (rat hepatocytes; 30 min): 100 % of parent; Relative abundance of metabolites calculated as % of parent (SYN2), Rat (rat hepatocytes; 60 min): 100 % of parent; unchanged parent remaining (rat hepatocytes; after 60 min, rat hepatocytes): 32%; Relative abundance of metabolites calculated as % of parent (SYN2), Human (human hepatocytes; 30 min): 100 % of parent; Relative abundance of metabolites calculated as % of parent (SYN2), Human (human hepatocytes; 60 min): 100 % of parent; unchanged SYN2 remaining (human hepatocytes; after 60 min, human hepatocytes): 70%; mean response, remaining 65 assays [1]: 7.63%; median response, remaining 65 assays [1]: 4%; pIC50 (muscarinic M2): ~6.00; pIC50 (hERG): ~6.00; Body weight (Wistar rats; [6]): -; Clinical observations (Wistar rats; [6]): -; Mortality (Wistar rats; [6]): -; Biochemical investigations (Wistar rats; [7]): +; Enzymatic investigations (Wistar rats; [7]): +; Haematological investigations (Wistar rats; [7]): -; Gross examination (Wistar rats; [8]): +; Histopathological examinations (Wistar rats; [8]): +; Weight of internal organs (Wistar rats; [8]): +; Tolerability in the toxicological study (Wistar rats; single i.v. 2 mg/kg b.w., Wistar rats): well-tolerated; No Observed Adverse Effect Level (NOAEL) (Wistar rats; single i.v. dose, Wistar rats): 2 mg/kg; inhibition [2]: 58%; inhibition (potassium channel hERG): 57%; inhibition [3]: 68%; AUCt ([4]; rat plasma): 73.75 ng·h/mL; Clast ([4]; rat plasma): 8.95 ng/mL; Cmax ([4]; rat plasma): 368.67 ng/mL; Tmax ([4]; rat plasma): 4.2 min; Vz ([4]; rat plasma): 0.99 L/kg; Cl ([4]; rat plasma clearance): 43.2 mL/min/kg; T½λz ([4]; terminal half-life, rat plasma): 15.6 min; Cmax [5]: 1.1 nM
